ChEMBL document CHEMBL1201862, “PubChem BioAssay data set” (2004)
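Briefly, cells in 96-well plates were exposed to five compound concentrations for 48 h, and endpoints were estimated by linear interpolation. GI50 = concentration required for 50% inhibition of growth.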 The source made the active and inactive calls. No stated cut-off is given here; in the data, active = GI50 up to about 1.1 µM and inactive = higher.

What was measured:
Assay in all cases: inhibition of tumour cell growth, NCI panel, 48 h
786-0 = system: 786-0
SK-MEL-2 = system: SK-MEL-2
HL-60 = system: HL-60
SK-MEL-28 = system: SK-MEL-28
SNB-19 = system: SNB-19
RPMI-8226 = system: RPMI-8226
EKVX = system: EKVX
UACC-62 = system: UACC-62
SNB-75 = system: SNB-75
LOX IMVI = system: LOX IMVI
COLO 205 = system: COLO 205
CCRF-CEM = system: CCRF-CEM
NCI-H226 = system: NCI-H226
SK-MEL-5 = system: SK-MEL-5
M14 = system: M14
IGROV-1 = system: IGROV-1
MDA-MB-231 = system: MDA-MB-231
BT-549 = system: BT-549
MCF7 = system: MCF7
NCI-H23 = system: NCI-H23
NCI-H460 = system: NCI-H460
UACC-257 = system: UACC-257
PC-3 = system: PC-3
T47D = system: T47D
HCT-116 = system: HCT-116
MDA-MB-435 = system: MDA-MB-435
DU-145 = system: DU-145
SR = system: SR
A498 = system: A498
SK-OV-3 = system: SK-OV-3
UO-31 = system: UO-31
SW-620 = system: SW-620
SF-268 = system: SF-268
HOP-92 = system: HOP-92
MOLT-4 = system: MOLT-4
MDA-N = system: MDA-N
HOP-62 = system: HOP-62
K562 = system: K562
NCI/ADR-RES = system: NCI/ADR-RES
KM12 = system: KM12
SN12C = system: SN12C
SF-295 = system: SF-295
ACHN = system: ACHN
U-251 = system: U-251
Hs-578T = system: Hs-578T
CAKI-1 = system: CAKI-1
OVCAR-3 = system: OVCAR-3
A549 = system: A549
TK-10 = system: TK-10
OVCAR-5 = system: OVCAR-5
HCT-15 = system: HCT-15
SF-539 = system: SF-539
HT-29 = system: HT-29
OVCAR-8 = system: OVCAR-8
Malme-3M = system: Malme-3M
OVCAR-4 = system: OVCAR-4
NCI-H522 = system: NCI-H522
HCC 2998 = system: HCC 2998

Compound: CCSC1=N/C(=C\c2ccco2)C(Cl)=N1
- GI50 (786-0): > 100 µM (inactive)
- GI50 (SK-MEL-2): > 100 µM (inactive)
- GI50 (HL-60): > 100 µM (inactive)
- GI50 (SK-MEL-28): > 100 µM (inactive)
- GI50 (SNB-19): > 100 µM (inactive)
- GI50 (RPMI-8226): > 100 µM (inactive)
- GI50 (EKVX): > 100 µM (inactive)
- GI50 (UACC-62): > 100 µM (inactive)
- GI50 (SNB-75): > 100 µM (inactive)
- GI50 (LOX IMVI): > 100 µM (inactive)
- GI50 (COLO 205): > 100 µM (inactive)
- GI50 (CCRF-CEM): > 100 µM (inactive)
- GI50 (NCI-H226): > 100 µM (inactive)
- GI50 (SK-MEL-5): > 100 µM (inactive)
- GI50 (M14): > 100 µM (inactive)
- GI50 (IGROV-1): > 100 µM (inactive)
- GI50 (MDA-MB-231): > 100 µM (inactive)
- GI50 (BT-549): > 100 µM (inactive)
- GI50 (MCF7): > 100 µM (inactive)
- GI50 (NCI-H23): > 100 µM (inactive)
- GI50 (NCI-H460): > 100 µM (inactive)
- GI50 (UACC-257): > 100 µM (inactive)
- GI50 (PC-3): > 100 µM (inactive)
- GI50 (T47D): > 100 µM (inactive)
- GI50 (HCT-116): > 100 µM (inactive)
- GI50 (MDA-MB-435): > 100 µM (inactive)
- GI50 (DU-145): > 100 µM (inactive)
- GI50 (SR): > 100 µM (inactive)
- GI50 (A498): > 100 µM (inactive)
- GI50 (SK-OV-3): > 100 µM (inactive)
- GI50 (UO-31): > 100 µM (inactive)
- GI50 (SW-620): > 100 µM (inactive)
- GI50 (SF-268): > 100 µM (inactive)
- GI50 (HOP-92): > 100 µM (inactive)
- GI50 (MOLT-4): > 100 µM (inactive)
- GI50 (MDA-N): > 100 µM (inactive)
- GI50 (HOP-62): > 100 µM (inactive)
- GI50 (K562): > 100 µM (inactive)
- GI50 (NCI/ADR-RES): > 100 µM (inactive)
- GI50 (KM12): > 100 µM (inactive)
- GI50 (SN12C): > 100 µM (inactive)
- GI50 (SF-295): > 100 µM (inactive)
- GI50 (ACHN): > 100 µM (inactive)
- GI50 (U-251): > 100 µM (inactive)
- GI50 (Hs-578T): > 100 µM (inactive)
- GI50 (CAKI-1): > 100 µM (inactive)
- GI50 (OVCAR-3): > 100 µM (inactive)
- GI50 (A549): > 100 µM (inactive)
- GI50 (TK-10): > 100 µM (inactive)
- GI50 (OVCAR-5): > 100 µM (inactive)
- GI50 (HCT-15): > 100 µM
- GI50 (SF-539): > 100 µM (inactive)
- GI50 (HT-29): > 100 µM (inactive)
- GI50 (OVCAR-8): > 100 µM (inactive)

Compound: O=[N+]([O-])c1ccc(C2=NOC(c3ccccc3F)N2C23CC4CC(CC(C4)C2)C3)cc1 (stereo unspecified)
- GI50 (786-0): > 100 µM (inactive)
- GI50 (SK-MEL-2): > 100 µM (inactive)
- GI50 (Malme-3M): > 100 µM (inactive)
- GI50 (HL-60): 25.9 µM (inactive)
- GI50 (SK-MEL-28): > 100 µM (inactive)
- GI50 (RPMI-8226): 98.9 µM (inactive)
- GI50 (EKVX): > 100 µM (inactive)
- GI50 (UACC-62): > 100 µM (inactive)
- GI50 (SNB-75): > 100 µM (inactive)
- GI50 (LOX IMVI): > 100 µM (inactive)
- GI50 (COLO 205): > 100 µM (inactive)
- GI50 (CCRF-CEM): > 100 µM (inactive)
- GI50 (NCI-H226): > 100 µM (inactive)
- GI50 (SK-MEL-5): > 100 µM (inactive)
- GI50 (M14): > 100 µM (inactive)
- GI50 (IGROV-1): > 100 µM (inactive)
- GI50 (MDA-MB-231): > 100 µM (inactive)
- GI50 (BT-549): > 100 µM (inactive)
- GI50 (MCF7): > 100 µM (inactive)
- GI50 (NCI-H23): > 100 µM (inactive)
- GI50 (NCI-H460): > 100 µM (inactive)
- GI50 (UACC-257): > 100 µM (inactive)
- GI50 (OVCAR-4): > 100 µM (inactive)
- GI50 (PC-3): > 100 µM (inactive)
- GI50 (T47D): > 100 µM (inactive)
- GI50 (HCT-116): > 100 µM (inactive)
- GI50 (MDA-MB-435): > 100 µM (inactive)
- GI50 (DU-145): > 100 µM (inactive)
- GI50 (SR): > 100 µM (inactive)
- GI50 (A498): > 100 µM (inactive)
- GI50 (SK-OV-3): > 100 µM (inactive)
- GI50 (UO-31): > 100 µM (inactive)
- GI50 (SW-620): > 100 µM (inactive)
- GI50 (SF-268): > 100 µM (inactive)
- GI50 (HOP-92): 7.43 µM (inactive)
- GI50 (MOLT-4): > 100 µM (inactive)
- GI50 (MDA-N): > 100 µM (inactive)
- GI50 (HOP-62): > 100 µM (inactive)
- GI50 (K562): > 100 µM (inactive)
- GI50 (NCI/ADR-RES): > 100 µM (inactive)
- GI50 (KM12): > 100 µM (inactive)
- GI50 (SN12C): > 100 µM (inactive)
- GI50 (SF-295): > 100 µM (inactive)
- GI50 (ACHN): > 100 µM (inactive)
- GI50 (U-251): > 100 µM (inactive)
- GI50 (Hs-578T): > 100 µM (inactive)
- GI50 (CAKI-1): > 100 µM (inactive)
- GI50 (OVCAR-3): > 100 µM (inactive)
- GI50 (A549): > 100 µM (inactive)
- GI50 (TK-10): > 100 µM (inactive)
- GI50 (NCI-H522): > 100 µM (inactive)
- GI50 (HCC 2998): > 100 µM (inactive)
- GI50 (OVCAR-5): > 100 µM (inactive)
- GI50 (HCT-15): > 100 µM
- GI50 (SF-539): > 100 µM (inactive)
- GI50 (HT-29): > 100 µM (inactive)
- GI50 (OVCAR-8): > 100 µM (inactive)

Compound: CC1OC1C(=O)P(=O)(O)O (stereo unspecified)
- GI50 (SK-MEL-2): > 100 µM (inactive)
- GI50 (HL-60): > 100 µM (inactive)
- GI50 (SK-MEL-28): > 100 µM (inactive)
- GI50 (SNB-19): > 100 µM (inactive)
- GI50 (RPMI-8226): > 100 µM (inactive)
- GI50 (EKVX): > 100 µM (inactive)
- GI50 (UACC-62): > 100 µM (inactive)
- GI50 (SNB-75): 57.9 µM (inactive)
- GI50 (LOX IMVI): > 100 µM (inactive)
- GI50 (COLO 205): > 100 µM (inactive)
- GI50 (CCRF-CEM): > 100 µM (inactive)
- GI50 (NCI-H226): > 100 µM (inactive)
- GI50 (SK-MEL-5): > 100 µM (inactive)
- GI50 (M14): > 100 µM (inactive)
- GI50 (IGROV-1): > 100 µM (inactive)
- GI50 (MDA-MB-231): > 100 µM (inactive)
- GI50 (BT-549): > 100 µM (inactive)
- GI50 (MCF7): > 100 µM (inactive)
- GI50 (NCI-H23): > 100 µM (inactive)
- GI50 (NCI-H460): > 100 µM (inactive)
- GI50 (UACC-257): > 100 µM (inactive)
- GI50 (OVCAR-4): > 100 µM (inactive)
- GI50 (PC-3): > 100 µM (inactive)
- GI50 (T47D): > 100 µM (inactive)
- GI50 (HCT-116): > 100 µM (inactive)
- GI50 (MDA-MB-435): > 100 µM (inactive)
- GI50 (DU-145): > 100 µM (inactive)
- GI50 (SR): > 100 µM (inactive)
- GI50 (A498): > 100 µM (inactive)
- GI50 (SK-OV-3): > 100 µM (inactive)
- GI50 (UO-31): > 100 µM (inactive)
- GI50 (SW-620): > 100 µM (inactive)
- GI50 (SF-268): > 100 µM (inactive)
- GI50 (HOP-92): > 100 µM (inactive)
- GI50 (MOLT-4): > 100 µM (inactive)
- GI50 (MDA-N): > 100 µM (inactive)
- GI50 (HOP-62): > 100 µM (inactive)
- GI50 (K562): > 100 µM (inactive)
- GI50 (NCI/ADR-RES): > 100 µM (inactive)
- GI50 (KM12): > 100 µM (inactive)
- GI50 (SN12C): > 100 µM (inactive)
- GI50 (SF-295): > 100 µM (inactive)
- GI50 (ACHN): > 100 µM (inactive)
- GI50 (U-251): > 100 µM (inactive)
- GI50 (Hs-578T): > 100 µM (inactive)
- GI50 (CAKI-1): > 100 µM (inactive)
- GI50 (OVCAR-3): > 100 µM (inactive)
- GI50 (A549): > 100 µM (inactive)
- GI50 (TK-10): > 100 µM (inactive)
- GI50 (NCI-H522): > 100 µM (inactive)
- GI50 (HCC 2998): > 100 µM (inactive)
- GI50 (OVCAR-5): > 100 µM (inactive)
- GI50 (HCT-15): > 100 µM
- GI50 (SF-539): > 100 µM (inactive)
- GI50 (OVCAR-8): > 100 µM (inactive)
